Paper PMC8490825 (Frontiers in Molecular Biosciences, 2021)
Where a SMILES comes first, the peptide text is derived from it. Bridges are numbered along the chain shown (N, C = ends).

Assays:
hNaV1.1 = hNaV1.1 (Homo sapiens, UniProt P35498); assay: cell-based; type: cell-based
hNaV1.7 = hNaV1.7 (Homo sapiens, UniProt Q15858); assay: cell-based; type: cell-based
Chain of hNaV1.7 (Q15858 whole entry, looked up): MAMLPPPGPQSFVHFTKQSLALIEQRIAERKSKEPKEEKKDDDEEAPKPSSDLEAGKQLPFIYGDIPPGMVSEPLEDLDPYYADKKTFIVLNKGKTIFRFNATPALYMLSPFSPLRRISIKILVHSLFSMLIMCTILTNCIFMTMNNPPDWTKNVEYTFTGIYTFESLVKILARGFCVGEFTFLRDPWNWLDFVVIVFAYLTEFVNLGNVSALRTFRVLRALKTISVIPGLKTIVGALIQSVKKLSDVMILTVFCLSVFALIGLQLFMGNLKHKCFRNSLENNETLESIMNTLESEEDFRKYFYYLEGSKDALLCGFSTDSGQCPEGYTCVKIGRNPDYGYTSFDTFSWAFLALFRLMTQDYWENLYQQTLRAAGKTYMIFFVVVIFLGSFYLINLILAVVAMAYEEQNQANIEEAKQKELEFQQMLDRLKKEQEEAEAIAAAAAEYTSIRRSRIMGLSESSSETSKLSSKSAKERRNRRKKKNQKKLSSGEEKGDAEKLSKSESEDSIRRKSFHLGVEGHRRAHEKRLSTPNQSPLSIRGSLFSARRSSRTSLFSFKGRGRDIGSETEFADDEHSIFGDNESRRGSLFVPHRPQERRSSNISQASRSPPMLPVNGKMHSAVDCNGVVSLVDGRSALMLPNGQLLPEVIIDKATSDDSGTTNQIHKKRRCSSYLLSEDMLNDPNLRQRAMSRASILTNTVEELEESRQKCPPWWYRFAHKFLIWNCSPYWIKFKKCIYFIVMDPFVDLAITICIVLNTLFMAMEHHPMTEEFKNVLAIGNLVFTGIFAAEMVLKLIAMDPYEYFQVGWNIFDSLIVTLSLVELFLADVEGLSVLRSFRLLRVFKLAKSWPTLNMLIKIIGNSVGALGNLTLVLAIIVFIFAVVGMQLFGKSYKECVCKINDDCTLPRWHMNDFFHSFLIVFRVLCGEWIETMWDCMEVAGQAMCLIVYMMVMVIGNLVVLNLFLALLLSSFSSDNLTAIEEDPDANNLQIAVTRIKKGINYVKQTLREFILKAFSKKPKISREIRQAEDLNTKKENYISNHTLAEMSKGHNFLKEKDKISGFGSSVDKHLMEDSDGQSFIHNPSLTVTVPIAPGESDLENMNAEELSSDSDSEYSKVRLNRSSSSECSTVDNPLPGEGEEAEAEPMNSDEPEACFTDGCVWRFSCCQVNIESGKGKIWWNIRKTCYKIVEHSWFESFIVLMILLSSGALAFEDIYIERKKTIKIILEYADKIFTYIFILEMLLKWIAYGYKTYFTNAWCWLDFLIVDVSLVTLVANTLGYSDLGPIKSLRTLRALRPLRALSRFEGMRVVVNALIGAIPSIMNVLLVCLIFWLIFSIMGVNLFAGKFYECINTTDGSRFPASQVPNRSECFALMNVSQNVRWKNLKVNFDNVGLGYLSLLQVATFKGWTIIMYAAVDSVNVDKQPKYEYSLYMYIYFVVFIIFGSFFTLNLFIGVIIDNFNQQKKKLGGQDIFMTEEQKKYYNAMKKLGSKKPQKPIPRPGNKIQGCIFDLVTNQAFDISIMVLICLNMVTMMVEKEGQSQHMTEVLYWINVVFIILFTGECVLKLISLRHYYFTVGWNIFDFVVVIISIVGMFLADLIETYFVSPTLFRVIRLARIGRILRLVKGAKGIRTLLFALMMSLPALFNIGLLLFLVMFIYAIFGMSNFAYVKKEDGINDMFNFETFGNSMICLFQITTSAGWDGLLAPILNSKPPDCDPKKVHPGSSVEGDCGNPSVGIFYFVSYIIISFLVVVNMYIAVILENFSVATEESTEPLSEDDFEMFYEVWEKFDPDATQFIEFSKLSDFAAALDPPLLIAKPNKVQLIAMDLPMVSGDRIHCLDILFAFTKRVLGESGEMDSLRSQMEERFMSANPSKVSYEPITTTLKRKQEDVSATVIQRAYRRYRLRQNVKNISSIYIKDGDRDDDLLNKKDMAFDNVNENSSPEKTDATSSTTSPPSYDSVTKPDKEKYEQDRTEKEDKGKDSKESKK

SMILES | IC50 (hNaV1.1) | IC50 (hNaV1.7) | inhibition of NaV1.1, in words (hNaV1.1) | inhibition of NaV1.7, in words (hNaV1.7)
CSCC[C@@H]1NC(=O)CNC(=O)[C@H](CC(C)C)NC(=O)[C@@H](NC(=O)[C@H](CC(=O)O)NC(=O)[C@H](CC(=O)O)NC(=O)CN)CSSC[C@@H]2NC(=O)[C@@H]3CSSC[C@@H](C(=O)N[C@@H](CCCCN)C(=O)N[C@@H](Cc4ccc(O)cc4)C(=O)N[C@@H](CCC(N)=O)C(=O)N[C@@H](CC(C)C)C(=O)N[C@@H](Cc4c[nH]c5ccccc45)C(=O)O)NC(=O)[C@H](Cc4c[nH]c5ccccc45)NC(=O)[C@H](C)NC(=O)[C@H](CC(=O)O)NC(=O)[C@H](CCCCN)NC(=O)[C@H](CCCNC(=N)N)NC(=O)[C@H](CO)NC(=O)[C@H](CSSC[C@H](NC(=O)[C@H](CO)NC(=O)[C@H](CO)NC(=O)[C@H](Cc4ccccc4)NC1=O)C(=O)N[C@@H](CC(=O)O)C(=O)N1CCC[C@H]1C(=O)N[C@@H](CC(N)=O)C(=O)N[C@@H](CC(N)=O)C(=O)N[C@@H](CC(=O)O)C(=O)N[C@@H](CCCCN)C(=O)N3)NC(=O)[C@H](CCCCN)NC(=O)[C@H](CCCNC(=N)N)NC(=O)[C@H](CC(N)=O)NC(=O)[C@@H]1CCCN1C2=O [Peptide Q28A] (H-GDDCLGMFSSCDPNNDKCCPNRKCSRKDAWCKYQLW-OH; disulfide 4-19, 11-24, 18-31) | > 1000 nM | > 1000 nM | – | –
CSCC[C@@H]1NC(=O)CNC(=O)[C@H](CC(C)C)NC(=O)[C@@H](NC(=O)[C@H](CC(=O)O)NC(=O)[C@H](CC(=O)O)NC(=O)CN)CSSC[C@@H]2NC(=O)[C@@H]3CSSC[C@@H](C(=O)N[C@@H](CCCCN)C(=O)N[C@@H](Cc4ccc(O)cc4)C(=O)N[C@@H](CCC(N)=O)C(=O)N[C@@H](CC(C)C)C(=O)N[C@@H](Cc4c[nH]c5ccccc45)C(=O)O)NC(=O)[C@H](Cc4c[nH]c5ccccc45)NC(=O)[C@H](CCC(N)=O)NC(=O)[C@H](CC(=O)O)NC(=O)[C@H](CCCCN)NC(=O)[C@H](CCCNC(=N)N)NC(=O)[C@H](CO)NC(=O)[C@H](CSSC[C@H](NC(=O)[C@H](CO)NC(=O)[C@H](CO)NC(=O)[C@H](Cc4ccccc4)NC1=O)C(=O)N[C@@H](CC(=O)O)C(=O)N1CCC[C@H]1C(=O)N[C@@H](CC(N)=O)C(=O)N[C@@H](CC(N)=O)C(=O)N[C@@H](C)C(=O)N[C@@H](CCCCN)C(=O)N3)NC(=O)[C@H](CCCCN)NC(=O)[C@H](CCCNC(=N)N)NC(=O)[C@H](CC(N)=O)NC(=O)[C@@H]1CCCN1C2=O [Peptide D15A] (H-GDDCLGMFSSCDPNNAKCCPNRKCSRKDQWCKYQLW-OH; disulfide 4-19, 11-24, 18-31) | > 1000 nM | > 1000 nM | – | –
CSCC[C@@H]1NC(=O)CNC(=O)[C@H](CC(C)C)NC(=O)[C@@H](NC(=O)[C@H](CC(=O)O)NC(=O)[C@H](CC(=O)O)NC(=O)CN)CSSC[C@@H]2NC(=O)[C@@H]3CSSC[C@@H](C(=O)N[C@@H](C)C(=O)N[C@@H](Cc4ccc(O)cc4)C(=O)N[C@@H](CCC(N)=O)C(=O)N[C@@H](CC(C)C)C(=O)N[C@@H](Cc4c[nH]c5ccccc45)C(=O)O)NC(=O)[C@H](Cc4c[nH]c5ccccc45)NC(=O)[C@H](CCC(N)=O)NC(=O)[C@H](CC(=O)O)NC(=O)[C@H](CCCCN)NC(=O)[C@H](CCCNC(=N)N)NC(=O)[C@H](CO)NC(=O)[C@H](CSSC[C@H](NC(=O)[C@H](CO)NC(=O)[C@H](CO)NC(=O)[C@H](Cc4ccccc4)NC1=O)C(=O)N[C@@H](CC(=O)O)C(=O)N1CCC[C@H]1C(=O)N[C@@H](CC(N)=O)C(=O)N[C@@H](CC(N)=O)C(=O)N[C@@H](CC(=O)O)C(=O)N[C@@H](CCCCN)C(=O)N3)NC(=O)[C@H](CCCCN)NC(=O)[C@H](CCCNC(=N)N)NC(=O)[C@H](CC(N)=O)NC(=O)[C@@H]1CCCN1C2=O [Peptide K31A] (H-GDDCLGMFSSCDPNNDKCCPNRKCSRKDQWCAYQLW-OH; disulfide 4-19, 11-24, 18-31) | > 1000 nM | > 1000 nM | loss of activity | loss of activity
CSCC[C@@H]1NC(=O)CNC(=O)[C@H](CC(C)C)NC(=O)[C@@H](NC(=O)[C@H](CC(=O)O)NC(=O)[C@H](CC(=O)O)NC(=O)CN)CSSC[C@@H]2NC(=O)[C@@H]3CSSC[C@@H](C(=O)N[C@@H](CCCCN)C(=O)N[C@@H](Cc4ccc(O)cc4)C(=O)N[C@@H](CCC(N)=O)C(=O)N[C@@H](CC(C)C)C(=O)N[C@@H](Cc4c[nH]c5ccccc45)C(=O)O)NC(=O)[C@H](Cc4c[nH]c5ccccc45)NC(=O)[C@H](CCC(N)=O)NC(=O)[C@H](C)NC(=O)[C@H](CCCCN)NC(=O)[C@H](CCCNC(=N)N)NC(=O)[C@H](CO)NC(=O)[C@H](CSSC[C@H](NC(=O)[C@H](CO)NC(=O)[C@H](CO)NC(=O)[C@H](Cc4ccccc4)NC1=O)C(=O)N[C@@H](CC(=O)O)C(=O)N1CCC[C@H]1C(=O)N[C@@H](CC(N)=O)C(=O)N[C@@H](CC(N)=O)C(=O)N[C@@H](CC(=O)O)C(=O)N[C@@H](CCCCN)C(=O)N3)NC(=O)[C@H](CCCCN)NC(=O)[C@H](CCCNC(=N)N)NC(=O)[C@H](CC(N)=O)NC(=O)[C@@H]1CCCN1C2=O [Peptide D27A] (H-GDDCLGMFSSCDPNNDKCCPNRKCSRKAQWCKYQLW-OH; disulfide 4-19, 11-24, 18-31) | 287 nM | 353 nM | – | –
CSCC[C@@H]1NC(=O)CNC(=O)[C@H](CC(C)C)NC(=O)[C@@H](NC(=O)[C@H](CC(=O)O)NC(=O)[C@H](CC(=O)O)NC(=O)CN)CSSC[C@@H]2NC(=O)[C@@H]3CSSC[C@@H](C(=O)N[C@@H](CCCCN)C(=O)N[C@@H](Cc4ccc(O)cc4)C(=O)N[C@@H](CCC(N)=O)C(=O)N[C@@H](CC(C)C)C(=O)N[C@@H](Cc4c[nH]c5ccccc45)C(=O)O)NC(=O)[C@H](Cc4c[nH]c5ccccc45)NC(=O)[C@H](CCC(N)=O)NC(=O)[C@H](CC(=O)O)NC(=O)[C@H](CCCCN)NC(=O)[C@H](CCCNC(=N)N)NC(=O)[C@H](CO)NC(=O)[C@H](CSSC[C@H](NC(=O)[C@H](CO)NC(=O)[C@H](CO)NC(=O)[C@H](Cc4ccccc4)NC1=O)C(=O)N[C@@H](CC(=O)O)C(=O)N[C@@H](C)C(=O)N[C@@H](CC(N)=O)C(=O)N[C@@H](CC(N)=O)C(=O)N[C@@H](CC(=O)O)C(=O)N[C@@H](CCCCN)C(=O)N3)NC(=O)[C@H](CCCCN)NC(=O)[C@H](CCCNC(=N)N)NC(=O)[C@H](CC(N)=O)NC(=O)[C@@H]1CCCN1C2=O [Peptide P12A] (H-GDDCLGMFSSCDANNDKCCPNRKCSRKDQWCKYQLW-OH; disulfide 4-19, 11-24, 18-31) | > 1000 nM | > 1000 nM | – | –
CSCC[C@@H]1NC(=O)CNC(=O)[C@H](CC(C)C)NC(=O)[C@@H](NC(=O)[C@H](CC(=O)O)NC(=O)[C@H](CC(=O)O)NC(=O)CN)CSSC[C@@H]2NC(=O)[C@@H]3CSSC[C@@H](C(=O)N[C@@H](CCCCN)C(=O)N[C@@H](Cc4ccc(O)cc4)C(=O)N[C@@H](CCC(N)=O)C(=O)N[C@@H](CC(C)C)C(=O)N[C@@H](C)C(=O)O)NC(=O)[C@H](Cc4c[nH]c5ccccc45)NC(=O)[C@H](CCC(N)=O)NC(=O)[C@H](CC(=O)O)NC(=O)[C@H](CCCCN)NC(=O)[C@H](CCCNC(=N)N)NC(=O)[C@H](CO)NC(=O)[C@H](CSSC[C@H](NC(=O)[C@H](CO)NC(=O)[C@H](CO)NC(=O)[C@H](Cc4ccccc4)NC1=O)C(=O)N[C@@H](CC(=O)O)C(=O)N1CCC[C@H]1C(=O)N[C@@H](CC(N)=O)C(=O)N[C@@H](CC(N)=O)C(=O)N[C@@H](CC(=O)O)C(=O)N[C@@H](CCCCN)C(=O)N3)NC(=O)[C@H](CCCCN)NC(=O)[C@H](CCCNC(=N)N)NC(=O)[C@H](CC(N)=O)NC(=O)[C@@H]1CCCN1C2=O [Peptide W35A] (H-GDDCLGMFSSCDPNNDKCCPNRKCSRKDQWCKYQLA-OH; disulfide 4-19, 11-24, 18-31) | > 1000 nM | > 1000 nM | – | –
CSCC[C@@H]1NC(=O)CNC(=O)[C@H](CC(C)C)NC(=O)[C@@H](NC(=O)[C@H](CC(=O)O)NC(=O)[C@H](CC(=O)O)NC(=O)CN)CSSC[C@@H]2NC(=O)[C@@H]3CSSC[C@@H](C(=O)N[C@@H](CCCCN)C(=O)N[C@@H](Cc4ccc(O)cc4)C(=O)N[C@@H](CCC(N)=O)C(=O)N[C@@H](CC(C)C)C(=O)N[C@@H](Cc4c[nH]c5ccccc45)C(=O)O)NC(=O)[C@H](Cc4c[nH]c5ccccc45)NC(=O)[C@H](CCC(N)=O)NC(=O)[C@H](CC(=O)O)NC(=O)[C@H](CCCCN)NC(=O)[C@H](CCCNC(=N)N)NC(=O)[C@H](C)NC(=O)[C@H](CSSC[C@H](NC(=O)[C@H](CO)NC(=O)[C@H](CO)NC(=O)[C@H](Cc4ccccc4)NC1=O)C(=O)N[C@@H](CC(=O)O)C(=O)N1CCC[C@H]1C(=O)N[C@@H](CC(N)=O)C(=O)N[C@@H](CC(N)=O)C(=O)N[C@@H](CC(=O)O)C(=O)N[C@@H](CCCCN)C(=O)N3)NC(=O)[C@H](CCCCN)NC(=O)[C@H](CCCNC(=N)N)NC(=O)[C@H](CC(N)=O)NC(=O)[C@@H]1CCCN1C2=O [Peptide S24A] (H-GDDCLGMFSSCDPNNDKCCPNRKCARKDQWCKYQLW-OH; disulfide 4-19, 11-24, 18-31) | > 1000 nM | 920 nM | – | –
CSCC[C@@H]1NC(=O)CNC(=O)[C@H](CC(C)C)NC(=O)[C@@H](NC(=O)[C@H](CC(=O)O)NC(=O)[C@H](CC(=O)O)NC(=O)CN)CSSC[C@@H]2NC(=O)[C@@H]3CSSC[C@@H](C(=O)N[C@@H](CCCCN)C(=O)N[C@@H](Cc4ccc(O)cc4)C(=O)N[C@@H](CCC(N)=O)C(=O)N[C@@H](C)C(=O)N[C@@H](Cc4c[nH]c5ccccc45)C(=O)O)NC(=O)[C@H](Cc4c[nH]c5ccccc45)NC(=O)[C@H](CCC(N)=O)NC(=O)[C@H](CC(=O)O)NC(=O)[C@H](CCCCN)NC(=O)[C@H](CCCNC(=N)N)NC(=O)[C@H](CO)NC(=O)[C@H](CSSC[C@H](NC(=O)[C@H](CO)NC(=O)[C@H](CO)NC(=O)[C@H](Cc4ccccc4)NC1=O)C(=O)N[C@@H](CC(=O)O)C(=O)N1CCC[C@H]1C(=O)N[C@@H](CC(N)=O)C(=O)N[C@@H](CC(N)=O)C(=O)N[C@@H](CC(=O)O)C(=O)N[C@@H](CCCCN)C(=O)N3)NC(=O)[C@H](CCCCN)NC(=O)[C@H](CCCNC(=N)N)NC(=O)[C@H](CC(N)=O)NC(=O)[C@@H]1CCCN1C2=O [Peptide L34A] (H-GDDCLGMFSSCDPNNDKCCPNRKCSRKDQWCKYQAW-OH; disulfide 4-19, 11-24, 18-31) | > 1000 nM | > 1000 nM | – | –
